Where two headings read alike, the source gives them in different places.
Columns and labels:
[1] = test system: human platelet thromboxane production (cyclooxygenase pathway); assay: Human platelet thromboxane (TXB2) formation from [14C]-arachidonic acid, TLC; type: cell-based; conditions: for TXB2 formation (FIG. 2): CLA mix 3 and 10 μM, 9,11-18:2 30 and 60 μM, 10,12-18:2 3 and 10 μM, with ionophore A23187; for inhibitory effectiveness on platelet TXB2 formation, CLA mix and pure isomers compared: CLA mix vs pure 9,11- and 10,12-18:2; for IC50: Platelet, read-out: Inhibitory Potency (I50); for potency as thromboxane inhibitor relative to non-hydroxylated parent: 13-HODE vs 9,11-18:2
Experimental: (§1) Human platelets were isolated from donors according to previously established procedures (13) and resuspended in Krebs-Henseleit buffer (pH 7.4) at a concentration of 3×10^8 platelets/ml. The platelets (0.5 ml) were placed in a 37° C. water bath for several minutes and then treated with either vehicle (ethanol) or various concentrations of the fatty acid to be tested for 2 min. Next, 10 μM (final concentration) [^14 C]-arachidonic acid was added. In some experiments, 20 μM calcium ionophore A23187 was added about 5 sec. prior to the addition of the arachidonic acid substrate. Ten minutes after the addition of arachidonic acid, the reaction was terminated with 10% formic acid and the products extracted with chloroform-methanol. Product separation and analysis by thin layer chromatography (TLC) was carried out as previously described using unlabeled arachidonic acid, 15-HETE and thromboxane B2 as standards (11). The various radioactive product and unreacted substrate bands were visualized by autoradiography and quantitated either by scraping the bands from the TLC plate and counting the samples in a liquid scintillation counter or by determining the relative band intensities using a Personal Densitometer SI (Molecular Dynamics, Sunnyvale, Calif.) with ImageQuaNT v4.2 software).
To obtain the results shown in FIG. 2, the human platelets were pretreated with the various concentrations of CLA isomers followed by the addition of calcium ionophore A23187 and [^14 C]-arachidonic acid. Products were isolated, separated by thin layer chromatography as described above. […] The identities of the bands in decreasing order of Rf are as follows: AA-unreacted arachidonic acid, 12-HETE-12-hydroxyeicosatetraenoic acid (a platelet 12-lipoxygenase metabolite), HHT-12-hydroxyheptadecatrienoic acid, TXB2 -thromboxane B2, the latter two products are cyclooxygenase metabolites, origin-sample application point.
The data shown were obtained by determining the effects of various concentrations of CLA isomers on platelet thromboxane B2 production. […] [^14 C]-thromboxane B2 production by fatty acid-treated platelets relative to vehicle-treated platelets was determined and expressed as % control. Symbols used for various fatty acids: ΔΔ, CLA mix .box-solid.-.box-solid., 10,12-18:2, .smallcircle.-.smallcircle., 9,11-18:2, *-*, 13-HODE, .gradient.-.gradient., 9-HODE.

[2] = test system: 12-lipoxygenase (human platelet 12-HETE formation); assay: Human platelet 12-HETE formation from [14C]-arachidonic acid, TLC; type: cell-based; conditions: CLA mix 3 and 10 μM; 9,11-18:2 30 and 60 μM; 10,12-18:2 3 and 10 μM; with ionophore A23187
Experimental: as §1, with “Ten minutes after the addition of arachidonic acid, the reaction was terminated with 10% formic acid and the products extracted with chloroform-methanol.” left out, “software). To obtain the results shown in FIG. 2, the human platelets were pretreated with the various concentrations of CLA isomers followed by the addition of calcium ionophore A23187 and [^14 C]-arachidonic acid. […]” for “software).”

[3] = human platelets, exogenous arachidonic acid, calcium ionophore A23187, mean ± S.E.M., 6-11 donors

## CCCCCC/C=C/C=C\CCCCCCCC(=O)O [9,11-18:2, 9,11-octadecadienoic acid]
[1]
  TXB2 formation (FIG. 2): TXB2 was inhibited
  inhibitory effectiveness on platelet TXB2 formation, CLA mix and pure isomers compared: approximately the same
[1]; [3]
  IC50: 16 ± 1.8 µM
[2]
  12-HETE production (FIG. 2): no effect on the 12-HETE production

## CCCCC/C=C\C=C\C(O)CCCCCCCC(=O)O (stereo not drawn) [9-HODE]
[1]; 9-HODE vs 10,12-18:2
  decrease of inhibitory effectiveness relative to 10,12-18:2: more than two
  potency as thromboxane inhibitor relative to non-hydroxylated parent: less potent than the corresponding non-hydroxylated parent 10,12-18:2
[1]; [3]
  IC50: 34 ± 6.5 µM

## CCCCC/C=C\C=C\CCCCCCCCC(=O)O [10,12-18:2, 10,12-octadecadienoic acid]
[1]
  TXB2 formation (FIG. 2): TXB2 was inhibited
  inhibitory effectiveness on platelet TXB2 formation, CLA mix and pure isomers compared: approximately the same
[1]; [3]
  IC50: 13 ± 4.1 µM
[2]
  12-HETE production (FIG. 2): no effect on the 12-HETE production

## CCCCC[C@H](O)/C=C/C=C\CCCCCCCC(=O)O [13-HODE]
[1]; 9-HODE vs 10,12-18:2
  potency as thromboxane inhibitor relative to non-hydroxylated parent: more potent as a thromboxane inhibitor than the parent 9,11-18:2
[1]; 13-HODE vs 9,11 isomer
  enhancement of inhibitory potency relative to the non-hydroxylated analog: about five
[1]; [3]
  IC50: 3 ± 0.7 µM

## CCCCCCCC/C=C\CCCCCCCC(=O)O [Oleic acid]
[1]; Homo sapiens
  IC50: > 60 µM

Source: patent US6077525A, “Use of conjugated linoleic acids” (The George Washington University, priority 1998, dated 2000)
